Reference: patent US20110020359A1, “METHODS AND COMPOSITIONS FOR TREATING NEURONAL DAMAGE OR DEGENERATION” (California Institute of Technology, priority 2009, published 2011)
Blank lines part the entries; values can stand above or below the molecule they belong to.

Experiments:
[1] = tested on: dissociated rat P5-9 CGN cultures; test: Cerebellar granule neuron (CGN) neurite outgrowth assay; type: cell-based; conditions: P7 rat CGNs
Protocol: Nitric acid-treated, 15-mm round German glass coverslips are coated with P-Orn in pH 6-8.5 borate buffer (at approximately 50 μg/ml) for about 1 hr at 37° C. and 5% CO2. CSPGs (at approximately 1 μg/ml) or polysaccharides enriched in the CS-A, CS-C, or CS-E sulfation motifs (at approximately 1 μg/ml) are coated on the P-Orn-coated coverslips overnight at 37° C. and 5% CO2. Cerebella from P5-9 Sprague Dawley rats are dissected, purified as described above, and cultured on the coated coverslips at a cell density of about 200 cells/mm^2. Neurons are grown in DMEM/F12, 1% FBS, and N1 supplement for about 24 hr.
In one example, inhibitors against MEK (PD98059, 25 μM; Calbiochem), EGFR (AG1478, 15 nM; Calbiochem), ROCK (Y27632, 5 μM; Calbiochem) and JNK (JNK Inhibitor II, 10 μM; Calbiochem) are added in solution at the start of culturing, and neurons are grown for 24 hr. For neurite outgrowth experiments from p75 knockout mice, cerebella from P5-7 mice, either C57BL/6 wild-type or p75−/− knockout mice, are dissected and purified as described above. Neurons are plated at a density of 200-300 cells/mm2 and cultured for about 24 hr. Cells are then fixed in 4% PFA/10% sucrose, immunostained with neuronal specific anti-class III β-tubulin antibody (TUJ1; Covance), and evaluated for neurite outgrowth. Neurons are imaged using a Nikon TE2000-S fluorescent microscope and quantified using the NIH software Image J. Statistical analysis is performed using the one-way ANOVA; n=50-200 cells per experiment.
P7 rat CGNs are grown for 24 hours on CS-E (1 μg/ml) in the presence of the CS-E antibody (CS-E Ab; 10 μg/ml).

[2] = tested on: Retinal ganglion cell axons; test: Optic nerve regeneration assay; conditions: counted at 125-μm intervals from the crush site
Protocol: At 1-14 days post injury, mice are given an overdose of pentobarbital and are transcardially perfused with 4% PFA. Eyeballs still attached with the optic nerve are dissected and post-fixed in 4% PFA overnight. Following cryoprotection with 30% sucrose in PBS, tissues are embedded in O.C.T. and serial sectioned for 5-20 μm along the longitudinal direction of the nerve. For immunofluorescence labeling, the sections are washed with PBS, pre-incubated in a blocking buffer (approximately 1% BSA, 0.3%TX-100 in PBS) and followed by sequential incubations with primary antibodies, including mouse anti-CS-E (1:200), goat-anti-CTB (1:4000), or rabbit anti-IβIII-tubulin antibodies (Invitrogen). […] The retinal cryosections are mounted with Vectashield and visualized under a Nikon fluorescence microscope. To quantify the number of CTB-positive regenerating axons, the number of regenerating axons is counted at 125 μm stepwise from the crush site of the optic nerve. The total number of regenerating axons is estimated. To quantify the number of surviving retinal ganglion cells, the total number of βIII-tubulin positive cells is counted in at least 3 retinal sections per retina.
(1.7 mg/ml) antibody treatment placed around the crush site of the nerve are studied. […] The extent of axonal regrowth is assessed 2 weeks after injury.

[3] = Pull-down with biotinylated CS-E; type: binding; conditions: COS-7 cell lysates, immunoblot
Description: Pull down assays can be useful for identifying proteins which bind to CS (e.g. CS-A, CS-C, or CS-E). Pull down assays can also be used for identifying agents that disrupt the binding between CS and a known binding partner. Full-length human p75 cDNA (amino acids 1-427; Open Biosystems) is ligated into a pcDNA3 vector (Invitrogen), modified to fuse an HA tag to the 5′ end of the insert. Human NgR (amino acids 27-473; imaGenes) is ligated into a modified pAPtag-5 vector (GenHunter) which fuses a secretion signal sequence and a c-myc tag to the 3′ end of the insert. COS-7 cells are transfected with either NgR-myc, p75-HA, or both using the Lipofectamine (Invitrogen) method. Cells are lysed about 2 days after transfection with 0.5-2% Triton X-100 in PBS containing a protease inhibitor mixture (Roche) by rocking for 15-90 min at 4° C. The lysates are clarified by centrifugation at 5-25,000 rpm for 1-30 min.
Biotin is attached to the free amino group of the residual core peptides of CS-C and CS-E polysaccharides (Seikagaku). […]
Biotinylated CS-C or CS-E (approximately 280 μg each) in 100-500 μl of PBS is added to streptavidin agarose resin (about 140 μl; Pierce) and incubated at room temperature for about 1 hr. […] NgR-myc and p75-HA are detected by immunoblotting with myc-tag (Cell Signaling) or HA-tag (Sigma) antibodies.

[4] = Oligosaccharide microarray; type: binding
Protocol: Ozonolysis of the anomeric allyl group and linkage of CS compounds 1-41,2 to 1,2-(bisaminooxy)ethane3 proceeds as follows: oligosaccharide (0.51 μmol) is dissolved in MeOH (500 μL) and cooled to −78° C. O3 is bubbled through the reaction until a blue color persists (1 min). The reaction is then purged with N2 until colorless, quenched with Ph3P beads (3 mg), and gradually warmed to rt over 12 h. The reaction is filtered and the product concentrated to afford the desired aldehyde as a white solid. The aldehyde (0.51 μmol) is then reacted for 14 h at rt with 1,2-(bisaminooxy)ethane hydrochloride (1.4 mg, 15 μmol) that has been dissolved in H2O (100 μL) and pH adjusted to 5.0 with 1 M NaOH. The resulting oxime product is purified using a SepPak C18 column (500 mg, H2O) and Sephadex G-10 (CS-E disaccharide, H2O) or Sephadex G-25 (tetrasaccharides, H2O) to afford a white solid in quantitative yield (0.51 μmol). CS-A aminooxy: ESI MS: m/z: calculated for C32H48N4Na3O31S2: 1117.1; found 1117.0. CS-C aminooxy: ESI MS: m/z: calculated for C32H48N4Na3O31S2: 1117.1; found 1117.0. CS-E aminooxy: ESI MS: m/z: calculated for C32H46N4Na5O37S4: 1321.0; found 1321.0. CS-E di amminooxy: ESI MS: m/z: calculated for C18H28N3Na2O20S2: 716.1; found 716.0. […]

Molecule: chondroitinaseABC
- inhibition of neurite outgrowth after digestion of CS-E polysaccharides [1]: small extent of residual inhibition
- number of regenerating axons compared with control IgG [2]: significantly more regenerating axons

B1: Full-length EphB3: full-length Ephrin receptor B3 (protein, UniProt P54753 1-998, looked up)
chain: MARARPPPPPSPPPGLLPLLPPLLLLPLLLLPAGCRALEETLMDTKWVTSELAWTSHPESGWEEVSGYDEAMNPIRTYQVCNVRESSQNNWLRTGFIWRRDVQRVYVELKFTVRDCNSIPNIPGSCKETFNLFYYEADSDVASASSPFWMENPYVKVDTIAPDESFSRLDAGRVNTKVRSFGPLSKAGFYLAFQDQGACMSLISVRAFYKKCASTTAGFALFPETLTGAEPTSLVIAPGTCIPNAVEVSVPLKLYCNGDGEWMVPVGACTCATGHEPAAKESQCRPCPPGSYKAKQGEGPCLPCPPNSRTTSPAASICTCHNNFYRADSDSADSACTTVPSPPRGVISNVNETSLILEWSEPRDLGGRDDLLYNVICKKCHGAGGASACSRCDDNVEFVPRQLGLTERRVHISHLLAHTRYTFEVQAVNGVSGKSPLPPRYAAVNITTNQAAPSEVPTLRLHSSSGSSLTLSWAPPERPNGVILDYEMKYFEKSEGIASTVTSQMNSVQLDGLRPDARYVVQVRARTVAGYGQYSRPAEFETTSERGSGAQQLQEQLPLIVGSATAGLVFVVAVVVIAIVCLRKQRHGSDSEYTEKLQQYIAPGMKVYIDPFTYEDPNEAVREFAKEIDVSCVKIEEVIGAGEFGEVCRGRLKQPGRREVFVAIKTLKVGYTERQRRDFLSEASIMGQFDHPNIIRLEGVVTKSRPVMILTEFMENCALDSFLRLNDGQFTVIQLVGMLRGIAAGMKYLSEMNYVHRDLAARNILVNSNLVCKVSDFGLSRFLEDDPSDPTYTSSLGGKIPIRWTAPEAIAYRKFTSASDVWSYGIVMWEVMSYGERPYWDMSNQDVINAVEQDYRLPPPMDCPTALHQLMLDCWVRDRNLRPKFSQIVNTLDKLIRNAASLKVIASAQSGMSQPLLDRTVPDYTTFTTVGDWLDAIKMGRYKESFVSAGFASFDLVAQMTAEDLLRIGVTLAGHQKKILSSIQDMRLQMNQTLPVQV
modifications: full-length
notes: full-length Ephrin receptor B3
- pull-down by CS-E [3]: is pulled down

- binding to CS-E polysaccharides, oligosaccharide microarray [4]: bind to CS-E polysaccharides
B2: OMgp: oligodendrocyte myelin protein (OMgp) (protein, UniProt P23515 25-417, looked up)
Oligodendrocyte-myelin …: ICPLQCICTERHRHVDCSGRNLSTLPSGLQENIIHLNLSYNHFTDLHNQLTQYTNLRTLDISNNRLESLPAHLPRSLWNMSAANNNIKLLDKSDTAYQWNLKYLDVSKNMLEKVVLIKNTLRSLEVLNLSSNKLWTVPTNMPSKLHIVDLSNNSLTQILPGTLINLTNLTHLYLHNNKFTFIPDQSFDQLFQLQEITLYNNRWSCDHKQNITYLLKWMMETKAHVIGTPCSTQISSLKEHNMYPTPSGFTSSLFTVSGMQTVDTINSLSVVTQPKVTKIPKQYRTKETTFGATLSKDTTFTSTDKAFVPYPEDTSTETINSHEAAAATLTIHLQDGMVTNTSLTSSTKSSPTPMTLSITSGMPNNFSEMPQQSTTLNLWREETTTNVKTPLPS
